PMC6595003, “Insights into real-time chemical processes in a calcium sensor protein-directed dynamic library” (Nature Communications, 2019)
Entries after “also recorded” stand apart in the source; their conditions may differ.

Key:
[1] = biological target: T1, dNCS-1 (Drosophila melanogaster, UniProt Q9VWX8); assay: Tryptophan emission fluorescence of dNCS-1 at increasing ligand concentrations (apparent Kd); format: binding; conditions: for Kd: Ca2+ loaded dNCS-1 0.8 µM, pH 7.9, 5% DMSO, 5 °C, fit to 1:1 stoichiometry, three independent experiments
T1 construct: made in house; host or cells: E. coli
T1 sequence (Q9VWX8 1-187): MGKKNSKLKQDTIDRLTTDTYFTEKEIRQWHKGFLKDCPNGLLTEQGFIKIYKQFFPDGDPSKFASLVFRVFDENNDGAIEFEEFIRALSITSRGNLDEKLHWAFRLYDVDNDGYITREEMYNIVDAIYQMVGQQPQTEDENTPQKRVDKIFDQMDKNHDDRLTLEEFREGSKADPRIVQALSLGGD
Method: Fluorescence-based experiments with 3a–3e were carried out to estimate their affinity to dNCS-1.
Mean ± SD from three independent experiments. The curves represent the least squares fitting of the experimental data to a 1:1 stoichiometry. To properly compare the different curves, intensities were normalized and represented. […] Input represents 1/10 cell lysates before IP. Quantifications of each lane from four experiments are shown below the blots. Bars represent percentage of NCS-1/ Ric8a binding (mean ± SD) normalized to DMSO. […] Mean ± SD from three independent experiments. […] Then, the percentage of picnotic bodies over the total nuclei was analyzed. Mean ± SD from three independent experiments. Paired two-tailed Student’s test ***P˂0.001; **P < 0.01; *P < 0.05. Source data are provided as a Source Data file. IP immunoprecipitation, WB western blot […]
the length of the pass light (L) is 1cm (see Supplementary Table 3 and Supplementary […]
Fluorescence emission experiments. Tryptophan emission fluorescence of dNCS-1 […]
affinity and calculate the apparent dissociation constant, Kd. Fluorescence measurements were performed by Jobin Yvon Floromax4 spectrofluorimeter equipped […]
5% DMSO at 5 °C. The excitation wavelength was fixed at 295 nm, and the emission spectra range were collected over 300-400 nm.
Then, three independent experiments were performed
Fluorescence intensities were normalized and represented as (I0 − I)/I 0. I stands for the observed fluorescence emission at 345 nm (fluorescence maximum), and I0 is the observed fluorescence emission of the protein itself without any small molecule. The apparent dissociation constant was obtained using a least squares algorithm to fit the experimental data to a 1:1 stoichiometry model.6 The fitting was performed with KaleidaGraph Data Analysis Program. […]
Protein expression and purification. Drosophila and human NCS-1 were over-expressed in E. coli and subsequently purified to homogeneity as previously described.9

[2] = biological target: T2, NCS-1/Ric8a interaction (Homo sapiens, UniProt P62166); assay: Co-IP binding assay of human NCS-1 and V5-tagged Ric8a in transfected HEK cells; format: cell-based; conditions: compound 20 μM; for modulation of the NCS-1/Ric8a binding: compared with DMSO (basal binding 100%); for Densitometry of V5-Ric8a co-immunoprecipitated with NCS-1, exp4: DMSO in the same experiment 3222255; for Densitometry of V5-Ric8a co-immunoprecipitated with NCS-1, exp3: DMSO in the same experiment 4613104; for Densitometry of V5-Ric8a co-immunoprecipitated with NCS-1, exp2: DMSO in the same experiment 9508518; for Densitometry of V5-Ric8a co-immunoprecipitated with NCS-1, exp1: DMSO in the same experiment 19247016
T2 construct: expressed in transfected cells; host or cells: HEK293 cells (Dharmacon)
Source text: Mean ± SD from three independent experiments. The curves represent the least squares fitting of the experimental data to a 1:1 stoichiometry. To properly compare the different curves, intensities were normalized and represented. […] Input represents 1/10 cell lysates before IP. Quantifications of each lane from four experiments are shown below the blots. Bars represent percentage of NCS-1/ Ric8a binding (mean ± SD) normalized to DMSO. […] CNS + (green) for Pe > 4.47 × 10^−6 cm s^−1, CNS- (red) for compounds with Pe < 4.47 × 10^–6 cm s^−1. […] Mean ± SD from three independent experiments. […] Then, the percentage of picnotic bodies over the total nuclei was analyzed. Mean ± SD from three independent experiments. Paired two-tailed Student’s test ***P˂0.001; **P < 0.01; *P < 0.05. Source data are provided as a Source Data file. IP immunoprecipitation, WB western blot
Binding assays with NCS-1 and Ric8a in co-transfected HEK cells were carried out to study the modulation effect of compounds 3a, 3b and 3d in the protein-protein interaction (Fig. 6b).
hNCS-1 and V5-tagged hRic8a were co-transfected into HEK293 cells (Dharmacon) using Lipofectamine 2000 (Invitrogen)[13]. After 24 h, after transfection, DMSO alone or the compounds dissolved in DMSO (20 μM) were added to the culture cells. Then, 24 h after transfection, cells were lysed with Lysis buffer (150 mM NaCl, 1.0% Nonidet P-40, 50 mM Tris, pH 8.0) in the presence of the compounds (20 μM), whose concentration was maintained throughout the immunoprecipitation assay. Precleared lysates were incubated overnight (12 h) at 4 °C with mouse anti-NCS-1 (1:500; Cell Signaling). Samples were subsequently incubated overnight with Protein-G-Sepharose (Sigma-Aldrich), washed and eluted from the Sepharose. Samples were analyzed by Western blot following standard procedures. […] Original representative western blots are found in Source Data file.

[3] = Parallel artificial membrane permeability assay (PAMPA-BBB); format: in vitro ADME; conditions: for Pe (10-6 cm s-1) Experimental 1 / Pe (10-6 cm s-1) Experimental 2 / Pe (10-6 cm s-1) Experimental 3: source data
Source text: The PAMPA methodology is a high-throughput technique to predict passive permeability through biological membranes that employs a brain lipid porcine as membrane. […]
From this equation and following the pattern established in the literature for BBB permeation prediction2 we could classify compounds as CNS + when they present a permeability > 4.50 x 10-6 cm s-1. Source data are provided as a Source Data file. […]
Parallel artificial membrane permeability assays. Prediction of the brain penetration was evaluated using a parallel artificial membrane permeability assay (PAMPA).4 Ten commercial drugs, phosphate buffer saline solution at pH 7.4 (PBS). DMSO and dodecane were purchased from Sigma, Across organics, Aldrich and Fluka. The porcine […]
plate was a 96-well filtrate plate (Multiscreen® IP Sterile Plate PDVF membrane, pore […]
MAIPS4510) and the acceptor plate was an indented 96-well plate (Multiscreen®, catalog no. MAMCS9610) both from Millipore. Filter PDVF […]
membrane units (diameter 30 mm, pore size 0.45 µm) from Symta were used to filter the samples. A 96-well plate UV reader (Thermoscientific, Multiskan spectrum) was used for the UV measurements.

[4] = pig, PAMPA-BBB, pH 7.4, 5% DMSO, 2 h 30 min at 25 °C, mean ± SD, read-out: Pe, in vitro permeability
[5] = PAMPA-BBB, pH 7.4, 5% DMSO, 2 h 30 min at 25 °C, mean ± SD

T2 sequence (P62166 2-190 limits assumed): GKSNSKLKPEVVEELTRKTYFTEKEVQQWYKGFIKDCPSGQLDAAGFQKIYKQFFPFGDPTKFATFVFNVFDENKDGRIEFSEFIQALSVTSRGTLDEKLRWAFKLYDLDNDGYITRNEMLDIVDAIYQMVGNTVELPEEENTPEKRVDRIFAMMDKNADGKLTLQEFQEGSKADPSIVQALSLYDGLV

Which Kd [1] does the source give for O=C(Cc1c[nH]c2ccccc12)NN=Cc1ccc([N+](=O)[O-])c(O)c1 (mixture of isomers) [3b] here?
The Kd was 43 ± 6 µM.

And the “Normalized Fluorescence I0-I/I0” value ([1]; ligand 3.2 μM)?
Its value is 0.064.

What about the “Normalized Fluorescence I0-I/I0” value ([1]; ligand 6.4 μM) of the same compound?
Its value is 0.094.

And the “Normalized Fluorescence I0-I/I0” value ([1]; ligand 8 μM)?
The value was 0.164.

And the “Normalized Fluorescence I0-I/I0” value ([1]; ligand 16 μM)?
Its value is 0.334.

And the “Normalized Fluorescence I0-I/I0” value ([1]; ligand 24 μM)?
Its value is 0.447.

What about the “Normalized Fluorescence I0-I/I0” value ([1]; ligand 32 μM) of the same compound?
The value was 0.600.

What about the “Normalized Fluorescence I0-I/I0” value ([1]; ligand 48 μM) of the same compound?
Its value is 0.701.

What about the “Normalized Fluorescence I0-I/I0” value ([1]; ligand 64 μM) of the same compound?
Its value is 0.814.

What about the “Normalized Fluorescence I0-I/I0” value ([1]; ligand 80 μM) of the same compound?
Its value is 0.849.

What about the “Normalized Fluorescence I0-I/I0” value ([1]; ligand 96 μM) of the same compound?
Its value is 0.900.

What about the “modulation of the NCS-1/Ric8a binding” value [2] of the same compound?
The value was “strong binding; also recorded: promote the stabilization of the NCS-1/Ric8a interaction”.

What about the “Densitometry of V5-Ric8a co-immunoprecipitated with NCS-1, exp4” value [2] of the same compound?
The value was 9362004.

What about the “Densitometry of V5-Ric8a co-immunoprecipitated with NCS-1, exp3” value [2] of the same compound?
Its value is 7268347.

What about the “Densitometry of V5-Ric8a co-immunoprecipitated with NCS-1, exp2” value [2] of the same compound?
Its value is 15828581.

And the “Densitometry of V5-Ric8a co-immunoprecipitated with NCS-1, exp1” value [2]?
The value was 32007200.

What about the Papp at 2.5 h, 0.04 mg/mL [3, 4] of the same compound?
Its Papp at 2.5 h, 0.04 mg/mL is 12.9 ± 0.8 ×10⁻⁶ cm/s.

And the “Pe (10-6 cm s-1) Experimental 1” value [3]?
The value was 12.9 10-6 cm s-1.

What about the “Pe (10-6 cm s-1) Experimental 2” value [3] of the same compound?
Its value is 12.33 10-6 cm s-1.

And the “Pe (10-6 cm s-1) Experimental 3” value [3]?
The value was 13.52 10-6 cm s-1.

For O=C(NN=Cc1ccc([N+](=O)[O-])c(O)c1)C(O)c1ccccc1 (mixture of isomers) [3d], which Kd [1] is on record?
The Kd was 61 ± 9 µM.

What about the “Normalized Fluorescence I0-I/I0” value ([1]; ligand 3.2 μM) of the same compound?
The value was 0.123.

What about the “Normalized Fluorescence I0-I/I0” value ([1]; ligand 6.4 μM) of the same compound?
The value was 0.086.

And the “Normalized Fluorescence I0-I/I0” value ([1]; ligand 8 μM)?
Its value is 0.187.

And the “Normalized Fluorescence I0-I/I0” value ([1]; ligand 16 μM)?
The value was 0.280.

And the “Normalized Fluorescence I0-I/I0” value ([1]; ligand 24 μM)?
The value was 0.401.

And the “Normalized Fluorescence I0-I/I0” value ([1]; ligand 32 μM)?
The value was 0.424.

What about the “Normalized Fluorescence I0-I/I0” value ([1]; ligand 48 μM) of the same compound?
The value was 0.549.

What about the “Normalized Fluorescence I0-I/I0” value ([1]; ligand 64 μM) of the same compound?
Its value is 0.700.

And the “Normalized Fluorescence I0-I/I0” value ([1]; ligand 80 μM)?
Its value is 0.766.

What about the “Normalized Fluorescence I0-I/I0” value ([1]; ligand 96 μM) of the same compound?
The value was 0.802.

What about the “modulation of the NCS-1/Ric8a binding” value [2] of the same compound?
The value was “strong binding; also recorded: promote the stabilization of the NCS-1/Ric8a interaction”.

And the “Densitometry of V5-Ric8a co-immunoprecipitated with NCS-1, exp4” value [2]?
Its value is 6181447.

And the “Densitometry of V5-Ric8a co-immunoprecipitated with NCS-1, exp3” value [2]?
The value was 9737953.

And the “Densitometry of V5-Ric8a co-immunoprecipitated with NCS-1, exp2” value [2]?
The value was 13428024.

And the “Densitometry of V5-Ric8a co-immunoprecipitated with NCS-1, exp1” value [2]?
Its value is 25716501.

And the “Pe, in vitro permeability” value [3, 5]?
The value was “did not show good permeability values”.

What about the Papp at 2.5 h [3, 4] of the same compound?
The Papp at 2.5 h was 2.5 ± 0.6 ×10⁻⁶ cm/s.

What about the “Pe (10-6 cm s-1) Experimental 1” value [3] of the same compound?
Its value is 2.5 10-6 cm s-1.

What about the “Pe (10-6 cm s-1) Experimental 2” value [3] of the same compound?
Its value is 2.04 10-6 cm s-1.

What about the “Pe (10-6 cm s-1) Experimental 3” value [3] of the same compound?
The value was 2.94 10-6 cm s-1.

What does the source list for O=C(N/N=C/c1ccc([N+](=O)[O-])c(O)c1)c1ccco1 [3a]?
Kd [1]: 32 ± 2 µM; Normalized Fluorescence I0-I/I0 ([1]; ligand 3.2 μM): 0.131; Normalized Fluorescence I0-I/I0 ([1]; ligand 6.4 μM): 0.215; Normalized Fluorescence I0-I/I0 ([1]; ligand 8 μM): 0.262; Normalized Fluorescence I0-I/I0 ([1]; ligand 16 μM): 0.405; Normalized Fluorescence I0-I/I0 ([1]; ligand 24 μM): 0.544; Normalized Fluorescence I0-I/I0 ([1]; ligand 32 μM): 0.668; Normalized Fluorescence I0-I/I0 ([1]; ligand 48 μM): 0.810; Normalized Fluorescence I0-I/I0 ([1]; ligand 64 μM): 0.878; Normalized Fluorescence I0-I/I0 ([1]; ligand 80 μM): 0.924; Normalized Fluorescence I0-I/I0 ([1]; ligand 96 μM): 0.955; modulation of the NCS-1/Ric8a binding [2]: reduced binding; also recorded: inhibitor similar to CPZ; Densitometry of V5-Ric8a co-immunoprecipitated with NCS-1, exp4 [2]: 1982719; Densitometry of V5-Ric8a co-immunoprecipitated with NCS-1, exp3 [2]: 1649426; Densitometry of V5-Ric8a co-immunoprecipitated with NCS-1, exp2 [2]: 4838154; Densitometry of V5-Ric8a co-immunoprecipitated with NCS-1, exp1 [2]: 13971167; Pe, in vitro permeability [3, 5]: did not show good permeability values; Prediction (penetration in the CNS) ([3]; Supplementary Table 5): CNS -; Papp at 2.5 h [3, 4]: 1.7 ± 0.7 ×10⁻⁶ cm/s; Pe (10-6 cm s-1) Experimental 1 [3]: 1.7 10-6 cm s-1; Pe (10-6 cm s-1) Experimental 2 [3]: 1.25 10-6 cm s-1; Pe (10-6 cm s-1) Experimental 3 [3]: 2.25 10-6 cm s-1
